Results: ChEMBL document CHEMBL6153142 (J Med Chem, 2025)

How the values were obtained:
[1] = Microsomal stability in mouse liver microsome assessed as intrinsic clearance; assay type: ADME; settings: liver microsomes, read-out: CLH
[2] = Half life in C57BL6 mouse at 0.3 mg/kg, iv measured upto 24 hrs by LC-MS/MS analysis; assay type: ADME, organism-based; settings: in vivo
[3] = Microsomal stability in human liver microsome assessed as intrinsic clearance; assay type: ADME; settings: liver microsomes, read-out: CLH
[4] = Microsomal stability in rat liver microsome assessed as intrinsic clearance; assay type: ADME; settings: microsomes
[5] = Cmax in C57BL6 mouse at 0.3 mg/kg, po measured upto 24 hrs by LC-MS/MS analysis; assay type: ADME, organism-based; settings: in vivo
Cytochrome P450 3A4 = Cytochrome P450 3A4 (Homo sapiens, UniProt P08684); assay: Inhibition of CYP3A4 (unknown origin) at 25 uM relative to control; assay type: ADME
Sequence of Cytochrome P450 3A4 (P08684 whole entry): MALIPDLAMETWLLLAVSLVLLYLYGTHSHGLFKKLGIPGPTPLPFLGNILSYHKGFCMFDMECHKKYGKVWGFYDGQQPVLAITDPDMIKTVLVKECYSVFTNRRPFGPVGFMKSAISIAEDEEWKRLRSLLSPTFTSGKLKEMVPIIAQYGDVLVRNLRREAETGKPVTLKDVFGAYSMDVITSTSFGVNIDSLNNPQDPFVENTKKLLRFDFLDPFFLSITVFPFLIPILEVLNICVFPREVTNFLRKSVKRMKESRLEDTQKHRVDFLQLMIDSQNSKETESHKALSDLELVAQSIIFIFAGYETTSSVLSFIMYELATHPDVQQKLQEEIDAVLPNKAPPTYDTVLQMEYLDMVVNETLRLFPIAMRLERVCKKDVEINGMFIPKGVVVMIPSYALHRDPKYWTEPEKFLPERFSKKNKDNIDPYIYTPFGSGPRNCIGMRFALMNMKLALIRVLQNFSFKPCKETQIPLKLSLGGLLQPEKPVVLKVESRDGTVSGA

[6] = target: T1, Leukotriene C4 synthase (Mus musculus) (UniProt Q60860); assay: In-vivo inhibition of LTC4S in mastoparan-induced C57BL/6 mouse model assessed as reduction in LTE4 level in skin at 0.3 mg/kg, po preincubated for 1 hr by LC-MS analysis; assay type: functional, organism-based
T1 sequence (whole entry): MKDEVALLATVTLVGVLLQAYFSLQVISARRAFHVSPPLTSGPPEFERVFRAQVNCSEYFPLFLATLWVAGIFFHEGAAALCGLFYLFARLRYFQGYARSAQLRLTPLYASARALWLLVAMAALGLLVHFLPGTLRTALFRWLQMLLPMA

[7] = Genotoxicity in Salmonella typhimurium TA98 by Ames test; assay type: toxicity; settings: salmonella enterica subsp. enterica serovar typhimurium
[8] = Volume of distribution at steady state in Sprague-Dawley rat at 0.1 mg/kg, iv measured upto 24 hrs by LC-MS/MS analysis; assay type: ADME, organism-based; settings: in vivo, read-out: Vdss
[9] = Oral bioavailability in Sprague-Dawley rat at 3 mg/kg by LC-MS/MS analysis; assay type: ADME, organism-based; settings: in vivo
[10] = AUC (0 to infinity) in cynomolgus monkey at 0.3 mg/kg, po measured upto 24 hrs by LC-MS/MS analysis; assay type: ADME, organism-based, Macaca fascicularis; settings: in vivo
[11] = Volume of distribution at steady state in Sprague-Dawley rat at 3 mg/kg, po or 1 mg/kg, iv by LC-MS/MS analysis; assay type: ADME, organism-based; settings: in vivo
[12] = Oral bioavailability in C57BL6 mouse at 0.3 mg/kg measured upto 24 hrs by LC-MS/MS analysis; assay type: ADME, organism-based; settings: in vivo
[13] = Apparent permeability across apical to basolateral side in dog MDCK-II cells; assay type: ADME, cell-based, Canis lupus familiaris
[14] = Microsomal stability in dog liver microsome assessed as intrinsic clearance; assay type: ADME, Canis lupus familiaris; settings: liver microsomes, read-out: CLH
[15] = Octanol/water distribution coefficient log D of the compound at pH 7.4 by shake flask based LC-MS/MS analysis; assay type: physicochemical
[16] = AUC (0 to infinity) in Beagle dog at 0.1 mg/kg, iv measured upto 24 hrs by LC-MS/MS analysis; assay type: ADME, organism-based, Canis lupus familiaris; settings: in vivo
[17] = Clearance in Sprague-Dawley rat at 1 mg/kg, iv measured upto 24 hrs by LC-MS/MS analysis; assay type: ADME, organism-based; settings: in vivo
[18] = AUC (0 to infinity) in Sprague-Dawley rat at 0.1 mg/kg, iv measured upto 24 hrs by LC-MS/MS analysis; assay type: ADME, organism-based; settings: in vivo
[19] = Volume of distribution at steady state in Beagle dog at 0.1 mg/kg, iv measured upto 24 hrs by LC-MS/MS analysis; assay type: ADME, organism-based, Canis lupus familiaris; settings: in vivo, read-out: Vdss
[20] = AUC (0 to infinity) in Sprague-Dawley rat at 3 mg/kg, po by LC-MS/MS analysis; assay type: ADME, organism-based; settings: in vivo
[21] = Volume of distribution at steady state in Beagle dog at 1 mg/kg, iv measured upto 24 hrs by LC-MS/MS analysis; assay type: ADME, organism-based, Canis lupus familiaris; settings: in vivo, read-out: Vdss
[22] = Half life in Sprague-Dawley rat at 0.1 mg/kg, iv measured upto 24 hrs by LC-MS/MS analysis; assay type: ADME, organism-based; settings: in vivo

O=C1CCCC2(CCN(c3cc(OCC(F)(F)F)ncn3)CC2)N1c1ccc(F)c(F)c1 gave a microsomal CLint [1] of 36 µL/min/mg, a half-life [2] of 2.8 h and a microsomal CLint [3] of 62 µL/min/mg. For the same compound, the CLH [4] was 20 µL/min, the Cmax [5] was 383 nM and the “inhibition (INH)” value (Cytochrome P450 3A4) was “Not_active”. For the same compound, the inhibition [6] was 30%, the Activity [7] was “Non-toxic” and the Vd [8] was 2.3 L/kg. For the same compound, the bioavailability [9] was 75%, the AUC(0-inf) [10] was 0.783 µM·h and the Vdss [11] was 2.3 L/kg. The bioavailability [12] was 32%, the Papp A→B [13] was 23 ×10⁻⁶ cm/s and the microsomal CLint [14] was 68 µL/min/mg. For the same compound, the logD [15] was 3.4, the AUC [16] was 1.16 µM·h and the clearance [17] was 11 mL/min/kg. For the same compound, the AUC [18] was 3.13 µM·h, the Vd [19] was 5.8 L/kg and the AUC(0-inf) [20] was 8.11 µM·h. The Vd [21] was 3.5 L/kg and the half-life [22] was 3.2 h.
